Assay results reported in article PMC8699473, “An Easily Expandable Multi-Drug LC-MS Assay for the Simultaneous Quantification of 57 Oral Antitumor Drugs in Human Plasma” (Cancers, 2021).
“And” between values parts separate entries of the source, which are not always exact repeats. Equal entries are not always repeated.

What was measured:
[1] = Long-term stability in spiked pooled human plasma
[2] = Freeze-thaw stability in spiked pooled human plasma; type: physicochemical
[3] = set-up: method as in supplement references [1-55] as printed per drug; conditions: minimum steady-state blood plasma concentration after multiple dose administration; ref supplement references [1-55] per drug; cited from earlier work
[4] = Short-term stability in spiked pooled human plasma (bench-top, 4 °C, 56 °C)
[5] = Autosampler stability of ready for injection samples; type: physicochemical, human
[6] = Plasma concentrations in patients on oral antitumor therapy (LC-MS); type: in vivo, human
Description: The liquid chromatography-mass spectrometer system consisted of a Thermo Scientific Dionex UltiMate^TM 3000 with an integrated and temperature controlled autosampler (Thermo Fisher Scientific, Dreieich, Germany). An Acquity UPLC® BEH C18 column (2.1 × 100 mm, 1.7 µm; Waters, Milford, CT, USA) equipped with an Acquity UPLC® BEH C18 VanGuard^TM Pre-Column (2.1 × 5 mm, 1.7 µm; Waters, Milford, CT, USA) was used for chromatographic separation. The Q-Exactive^TM Focus mass spectrometer (MS) was hyphenated with a heated electrospray ionization (HESI) source (both from Thermo Fisher Scientific, Dreieich, Germany).
Chromatographic separation was achieved using a gradient elution with water containing 0.5% (v/v) FA (eluent A) and MeOH with 0.1% (v/v) FA (eluent B). The injection volume was 5 µL. The gradient program is shown in Supplement Table S2. The flow rate was 0.5 mL/min with a total run time of 15 min. The column heater was maintained at 50 °C and the autosampler temperature was 4 °C.
The following MS and HESI settings were maintained for all analyses: Sheath gas, auxiliary gas, and sweep gas flow rates were set to 60, 20, and 0, respectively. The spray voltage was 4000 V. Both capillary and auxiliary gas heater temperatures were set to 400 °C. High-purity nitrogen gas was used for the HESI source gases and for the bath gas of the C-trap. […] The HESI source was configured in positive mode for ionization.
The stock solutions were stored in glass vials at −80 °C. Aliquots of all stock solutions were combined in ACN (volumes of individual stock solution solvents are negligible) to obtain a standard solution of all analytes with an individual concentration of 200% of the respective trough level (cmin). Eight individual working standards were prepared by stepwise dilution of this standard solution with concentrations from 10 to 200% cmin (shown in Supplement Table S3). Furthermore, the four individual IS stock solutions were combined and diluted to 50 ng/mL with ACN. Calibration and validation standards were prepared by spiking 50 µL pooled human plasma with 10 µL of the respective working solution. Next, 250 µL IS solution (50 ng/mL in ACN) were added and vortexed vigorously. […] Then, 100 µL supernatant were transferred to 300 µL HPLC insert glass vials and diluted with 100 µL eluent (90% A/10% B). For blank samples, 50 µL pooled human plasma were combined with 10 µL ACN (instead of working solution) and prepared as described above. The calibration and validation standards were freshly prepared before every run. Patient plasma samples were prepared as calibration and validation standards (no additional processing step necessary), except for adding 10 µL ACN instead of 10 µL working standard. Before sample preparation, the frozen plasma samples were thawed in absence of light at 4 °C.
Blood samples were collected over the entire dosing interval from patients treated with an oral anticancer drug as listed in Supplement Table S4. […] A maximum of two samples at two different time points throughout the entire dosing interval were collected per patient. Treatment duration before collection was at least five half-lives (depending on the specific oral anticancer drug). The samples were collected in K3-EDTA tubes.
A total of 71 blood samples from 39 patients treated with 14 different oral anticancer drugs were collected (see Supplement Table S4 for details). All patients were recruited from independent outpatient clinics associated with the Comprehensive Cancer Center of the University Hospital Erlangen (CCC Erlangen-EMN). Of 71 blood samples, 41 were taken ±4 h of trough level (cmin).

[7] = patient plasma, all samples, r.c. = respective cmin

COc1cc2c(Nc3ccc(Br)cc3F)ncnc2cc1OCC1CCN(C)CC1 [Vandetanib]
Long-term stability, 1 month, -20°C Accuracy [%] ([1]; validation standard 2xLLOV): 99.7%
Long-term stability, 1 month, -80°C Accuracy [%] ([1]; validation standard 2xLLOV): 97.7%
Long-term stability, 2 month, -20°C Accuracy [%] ([1]; validation standard 2xLLOV): 105.9%
Long-term stability, 2 month, -80°C Accuracy [%] ([1]; validation standard 2xLLOV): 106.4%
Long-term stability, 3 month, -20°C Accuracy [%] ([1]; validation standard 2xLLOV): 101.7%
Long-term stability, 3 month, -80°C Accuracy [%] ([1]; validation standard 2xLLOV): 101.7%
Long-term stability, 6 weeks, 4°C, without daylight Accuracy [%] ([1]; validation standard 2xLLOV): 92.2%
Long-term stability, 1 month, -20°C Accuracy [%] ([1]; validation standard LLOV): 95.3%
Long-term stability, 1 month, -80°C Accuracy [%] ([1]; validation standard LLOV): 88.9%
Long-term stability, 2 month, -20°C Accuracy [%] ([1]; validation standard LLOV): 97.5%
Long-term stability, 2 month, -80°C Accuracy [%] ([1]; validation standard LLOV): 97.6%
Long-term stability, 3 month, -20°C Accuracy [%] ([1]; validation standard LLOV): 87.6%
Long-term stability, 3 month, -80°C Accuracy [%] ([1]; validation standard LLOV): 83.6%
Long-term stability, 6 weeks, 4°C, without daylight Accuracy [%] ([1]; validation standard LLOV): 85.4%
Long-term stability, 1 month, -20°C Accuracy [%] ([1]; validation standard MOV): 98.6%
Long-term stability, 1 month, -80°C Accuracy [%] ([1]; validation standard MOV): 95.9%
Long-term stability, 2 month, -20°C Accuracy [%] ([1]; validation standard MOV): 105.7%
Long-term stability, 2 month, -80°C Accuracy [%] ([1]; validation standard MOV): 105.2%
Long-term stability, 3 month, -20°C Accuracy [%] ([1]; validation standard MOV): 105.3%
Long-term stability, 3 month, -80°C Accuracy [%] ([1]; validation standard MOV): 104.4%
Long-term stability, 6 weeks, 4°C, without daylight Accuracy [%] ([1]; validation standard MOV): 100.6%
Long-term stability, 1 month, -20°C Accuracy [%] ([1]; validation standard ULOV): 93.1%
Long-term stability, 1 month, -80°C Accuracy [%] ([1]; validation standard ULOV): 88.0%
Long-term stability, 2 month, -20°C Accuracy [%] ([1]; validation standard ULOV): 98.6%
Long-term stability, 2 month, -80°C Accuracy [%] ([1]; validation standard ULOV): 98.6%
Long-term stability, 3 month, -20°C Accuracy [%] ([1]; validation standard ULOV): 97.4%
Long-term stability, 3 month, -80°C Accuracy [%] ([1]; validation standard ULOV): 98.8%
Long-term stability, 6 weeks, 4°C, without daylight Accuracy [%] ([1]; validation standard ULOV): 93.5%
Freeze-Thaw Accuracy [%] ([2]; validation standard 2xLLOV): 97.2%
Freeze-Thaw Accuracy [%] ([2]; validation standard LLOV): 83.4%
Freeze-Thaw Accuracy [%] ([2]; validation standard MOV): 101.5%
Freeze-Thaw Accuracy [%] ([2]; validation standard ULOV): 94.0%
cmin [3]: 795 ng/mL
Short-time stability (1h, 56°C) Accuracy [%] ([4]; validation standard 2xLLOV): 44.7%
Short-time stability (24h, 4°C, without daylight) Accuracy [%] ([4]; validation standard 2xLLOV): 99.4%
Short-time stability (24h, RT, with daylight) Accuracy [%] ([4]; validation standard 2xLLOV): 97.2%
Short-time stability (24h, RT, without daylight) Accuracy [%] ([4]; validation standard 2xLLOV): 94.8%
Short-time stability (1h, 56°C) Accuracy [%] ([4]; validation standard LLOV): 24.9%
Short-time stability (24h, 4°C, without daylight) Accuracy [%] ([4]; validation standard LLOV): 91.7%
Short-time stability (24h, RT, with daylight) Accuracy [%] ([4]; validation standard LLOV): 81.4%
Short-time stability (24h, RT, without daylight) Accuracy [%] ([4]; validation standard LLOV): 80.3%
Short-time stability (1h, 56°C) Accuracy [%] ([4]; validation standard MOV): 49.3%
Short-time stability (24h, 4°C, without daylight) Accuracy [%] ([4]; validation standard MOV): 101.6%
Short-time stability (24h, RT, with daylight) Accuracy [%] ([4]; validation standard MOV): 95.8%
Short-time stability (24h, RT, without daylight) Accuracy [%] ([4]; validation standard MOV): 95.1%
Short-time stability (1h, 56°C) Accuracy [%] ([4]; validation standard ULOV): 41.3%
Short-time stability (24h, 4°C, without daylight) Accuracy [%] ([4]; validation standard ULOV): 88.8%
Short-time stability (24h, RT, with daylight) Accuracy [%] ([4]; validation standard ULOV): 83.1%
Short-time stability (24h, RT, without daylight) Accuracy [%] ([4]; validation standard ULOV): 83.3%
Autosampler (24h, 4°C) Accuracy [%] ([5]; validation standard 2xLLOV): 103.5%
Autosampler (72h, 4°C) Accuracy [%] ([5]; validation standard 2xLLOV): 102.7%
Autosampler (24h, 4°C) Accuracy [%] ([5]; validation standard LLOV): 85.9%
Autosampler (72h, 4°C) Accuracy [%] ([5]; validation standard LLOV): 83.5%
Autosampler (24h, 4°C) Accuracy [%] ([5]; validation standard MOV): 108.2%
Autosampler (72h, 4°C) Accuracy [%] ([5]; validation standard MOV): 101.8%
Autosampler (24h, 4°C) Accuracy [%] ([5]; validation standard ULOV): 95.3%
Autosampler (72h, 4°C) Accuracy [%] ([5]; validation standard ULOV): 94.4%
Measured plasma concentration ([6]; 300 mg/day, 24 h, ±4 h of trough level: no): 757.7 ng/mL and 621.3 ng/mL
Median Concentration of All Samples [% of r.c.] [6, 7]: 86.7 % of r.c.
Min–Max Concentration [% of r.c.] [6, 7]: 78.2–95.3 % of r.c.
